Among the data in the supplement of paper PMC10307832 are relative viability values, retold here.

What all share (experiment): relative viability (nuclei count vs DMSO), 5 days (fraction); higher = more cells survive
Compound in test [1]: C[C@@H](N)c1ccc(C(=O)Nc2ccnc3[nH]ccc23)cc1 + CS(=O)(=O)CCNCc1ccc(-c2ccc3ncnc(Nc4ccc(OCc5cccc(F)c5)c(Cl)c4)c3c2)o1 [Lapatinib] (partner 2 µM)
The method, boiled down:
(§1)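 One day after seeding in 1536-well plates, lung cancer cell lines were dosed by pin tool. Dosing was either single-drug or a fixed anchor-drug dose plus five library-drug doses (not always all listed) in √10 steps. After 5 days, nuclei were stained in one fix-and-stain step and counted on 4× images, and relative viability is the nuclei count of treated wells over that of vehicle wells, given as the median of duplicate plates.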

Compound in test [2]: O[C@H]1CC[C@H](Nc2ncc3nc(Nc4c(F)cc(F)cc4F)n([C@H]4CCOC4)c3n2)CC1 [Tanzisertib] + CCNC(=O)c1noc(-c2cc(C(C)C)c(O)cc2O)c1-c1ccc(CN2CCOCC2)cc1 [Luminespib] (partner 0.01 µM)
Summed up: as §1

Compound in test [3]: O[C@H]1CC[C@H](Nc2ncc3nc(Nc4c(F)cc(F)cc4F)n([C@H]4CCOC4)c3n2)CC1 [Tanzisertib] + COc1cc2c(Oc3ccc(NC(=O)C4(C(=O)Nc5ccc(F)cc5)CC4)cc3F)ccnc2cc1OCCCN1CCOCC1 [Foretinib] (partner 0.25 µM)
Summed up:
as §1

Compound in test [4]: C1CNCCC1C2=CC(=NN2)C3=CC=NC=C3 + COc1cccc2cc(-c3nc([C@H]4CC[C@H](C(=O)O)CC4)n4ncnc(N)c34)[nH]c12 [OSI-027] (partner 0.5 µM)
The method, boiled down:
as §1

As to UMC-11, the relative viability in test [1] (first compound 0.04 µM) was determined as 1.02; in test [1] (first compound 0.1265 µM), 0.974; in test [1] (first compound 0.4 µM), 1.05; in test [1] (first compound 1.265 µM), 0.459; in test [1] (first compound 4 µM) it was 0.812; in test [2] (first compound 0.08 µM), 1.1. Further, the relative viability in test [2] (first compound 0.253 µM) worked out at 1; in test [2] (first compound 0.8 µM), 0.946; in test [2] (first compound 2.53 µM) it was 1.08; in test [2] (first compound 8 µM) it was 1.03; in test [3] (first compound 0.08 µM) it was 0.976; in test [3] (first compound 0.253 µM) it was 1.14. For the same cell line, the relative viability turned out to be 0.962 in test [3] (first compound 0.8 µM); 1.01 in test [3] (first compound 2.53 µM); 1.18 in test [3] (first compound 8 µM); 0.452 in test [4] (first compound 0.08 µM); 0.537 in test [4] (first compound 0.8 µM); 0.459 in test [4] (first compound 2.53 µM). The relative viability in test [4] (first compound 8 µM) turned out to be 0.553.
